Measurements as given in ChEMBL document CHEMBL3351480, “Discovery of novel non-carboxylic acid 5-amino-4-cyanopyrazole derivatives as potent and highly selective LPA1R antagonists” (Bioorg Med Chem Lett, 2014).
pIC50: −log10 of the molar value. Active and inactive are the calls of the source. The calls are words filed in the database; no cut-off is given here.

How the values were obtained:
Format in all cases: functional, cell-based
[1] = biological target: Lysophosphatidic acid receptor 1 (Homo sapiens) (UniProt Q92633); assay: Antagonist activity at human LPA1R expressed in Chem-1 cells assessed as inhibition of lysophosphatidic acid-induced calcium mobilization at 30 uM by FLIPR assay
Chain of Lysophosphatidic acid receptor 1 (Homo sapiens) (Q92633 whole entry): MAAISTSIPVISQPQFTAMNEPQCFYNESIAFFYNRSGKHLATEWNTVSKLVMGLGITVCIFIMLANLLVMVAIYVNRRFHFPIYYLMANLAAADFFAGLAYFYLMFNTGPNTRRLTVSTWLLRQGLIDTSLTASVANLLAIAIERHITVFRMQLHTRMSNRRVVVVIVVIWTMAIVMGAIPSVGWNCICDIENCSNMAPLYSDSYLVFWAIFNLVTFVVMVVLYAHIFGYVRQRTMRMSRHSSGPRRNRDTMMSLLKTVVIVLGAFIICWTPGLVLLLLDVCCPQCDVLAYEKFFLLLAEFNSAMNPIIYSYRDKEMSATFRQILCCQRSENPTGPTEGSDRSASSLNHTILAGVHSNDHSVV

[2] = Antiproliferative activity against human NHLF cells assessed as inhibition of lysophosphatidic acid-induced proliferation by BrdU incorporation assay
[3] = biological target: T1, Lysophosphatidic acid receptor 3 (Homo sapiens) (UniProt Q9UBY5); assay: Antagonist activity at human LPA3R expressed in Chem-1 cells assessed as inhibition of lysophosphatidic acid-induced calcium mobilization at 30 uM by FLIPR assay
T1 sequence (whole entry): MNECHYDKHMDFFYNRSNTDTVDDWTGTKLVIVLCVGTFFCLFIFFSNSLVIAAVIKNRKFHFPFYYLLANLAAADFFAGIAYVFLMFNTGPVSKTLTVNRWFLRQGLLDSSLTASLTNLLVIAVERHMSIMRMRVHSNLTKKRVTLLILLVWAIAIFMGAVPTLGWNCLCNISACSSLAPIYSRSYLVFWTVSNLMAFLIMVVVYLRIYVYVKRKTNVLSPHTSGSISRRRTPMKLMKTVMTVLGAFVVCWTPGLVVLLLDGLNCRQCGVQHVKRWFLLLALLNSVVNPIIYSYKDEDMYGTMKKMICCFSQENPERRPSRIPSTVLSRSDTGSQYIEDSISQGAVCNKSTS

[4] = biological target: T1, Lysophosphatidic acid receptor 3 (Homo sapiens); assay: Antagonist activity at human LPA3R expressed in Chem-1 cells assessed as inhibition of lysophosphatidic acid-induced calcium mobilization by FLIPR assay

| inhibition [1] [%] | inhibition [3] [%] | inhibition [4] | SMILES | pIC50 [2] |
| --- | --- | --- | --- | --- |
| 85 | 30 | – | COc1ccc(C(=O)/C(=N\C2CCCCC2)n2ncc(C#N)c2N)c(OC)c1 | 5.41 |
| 100 | 14 | – | CCc1ccc(C(=O)/C(=N\C2CCCC2)n2ncc(C#N)c2N)cc1 | 6.27 |
| 78 | 19 | – | COc1cc2c(cc1C(=O)/C(=N\C1CCCC1)n1ncc(C#N)c1N)CCC2 | – |
| 79 | 8 | – | COc1cc(OC)c(C(=O)/C(=N\C2CCCC2)n2ncc(C#N)c2N)cc1OC | – |
| 49 | 3 | – | COc1cc(F)ccc1C(=O)/C(=N\C1CCCC1)n1ncc(C#N)c1N | – |
| 13 | 14 | – | COc1cc(C(=O)/C(=N\C2CCCC2)n2ncc(C#N)c2N)cc(OC)c1OC | – |
| 96 | 1 | – | N#Cc1cnn(/C(=N/C2CCCC2)C(=O)c2ccc(Br)cc2)c1N | – |
| – | – | inactive | COc1ccc(-c2[nH]c3c(C#N)cnn3c2NC2CCCC2)c(OC)c1 | – |
| 100 | 4 | – | COc1ccc(C(=O)/C(=N\C2CCCC2)n2ncc(C#N)c2N)c(F)c1 | 6.98 |
| 48 | 23 | – | COc1cc(OCc2ccccc2)ccc1C(=O)/C(=N\C1CCCC1)n1ncc(C#N)c1N | – |
| 98 | 23 | – | COc1ccc(C(=O)/C(=N\C2CCCC2)n2ncc(C#N)c2N)c(OC)c1 | 7.54 |
| 88 | 25 | – | COc1ccc(C(=O)/C(=N\C(C)C)n2ncc(C#N)c2N)c(OC)c1 | 7.57 |
| 78 | 2 | – | COc1cc2ccccc2cc1C(=O)/C(=N\C1CCCC1)n1ncc(C#N)c1N | 6.74 |
